Data: ChEMBL document CHEMBL3817752, “Antimycobacterial activity of new N(1)-[1-[1-aryl-3-[4-(1H-imidazol-1-yl)phenyl]-3-oxo]propyl]-pyridine-2-carboxamidrazone derivatives” (Bioorg Med Chem Lett, 2016)
Values after ≈ are worked out from the molar mass of the structure shown.

System: Mycobacterium tuberculosis variant bovis
Assay: Antimycobacterial activity against Mycobacterium bovis NCTC 10772 after 7 days by resazurin microtiter assay
Assay type: functional
Conditions: NCTC 10772, 168 h

| Compound | MIC [µM] |
| --- | --- |
| N/C(=N/NC(CC(=O)c1ccc(-n2ccnc2)cc1)c1ccccc1Cl)c1ccccn1 (stereo not given) | 18 (≈ 8.01 µg/mL) |
| N/C(=N/NC(CC(=O)c1ccc(-n2ccnc2)cc1)c1ccccc1)c1ccccn1 (stereo not given) | 39 (≈ 16 µg/mL) |
| N/C(=N/NC(CC(=O)c1ccc(-n2ccnc2)cc1)c1ccc(Cl)cc1Cl)c1ccccn1 (stereo not given) | 9 (≈ 4.31 µg/mL) |
| N/C(=N/NC(CC(=O)c1ccc(-n2ccnc2)cc1)c1ccccc1[N+](=O)[O-])c1ccccn1 (stereo not given) | 17.6 (≈ 8.02 µg/mL) |
| N/C(=N/NC(CC(=O)c1ccc(-n2ccnc2)cc1)c1cccc(F)c1)c1ccccn1 (stereo not given) | 18.7 (≈ 8.01 µg/mL) |
| N/C(=N/NC(CC(=O)c1ccc(-n2ccnc2)cc1)c1cccc([N+](=O)[O-])c1)c1ccccn1 (stereo not given) | 17.6 (≈ 8.02 µg/mL) |
| N/C(=N/NC(CC(=O)c1ccc(-n2ccnc2)cc1)c1ccc(Cl)cc1)c1ccccn1 (stereo not given) | 18 (≈ 8.01 µg/mL) |
| N/C(=N/NC(CC(=O)c1ccc(-n2ccnc2)cc1)c1ccccc1F)c1ccccn1 (stereo not given) | 18.7 (≈ 8.01 µg/mL) |
| N/C(=N/NC(CC(=O)c1ccc(-n2ccnc2)cc1)c1ccc(Br)cc1)c1ccccn1 (stereo not given) | 8.2 (≈ 4.01 µg/mL) |
| N/C(=N/NC(CC(=O)c1ccc(-n2ccnc2)cc1)c1cccc(Br)c1)c1ccccn1 (stereo not given) | 16.3 (≈ 7.98 µg/mL) |
| N/C(=N/NC(CC(=O)c1ccc(-n2ccnc2)cc1)c1ccccc1Br)c1ccccn1 (stereo not given) | 32.7 (≈ 16 µg/mL) |
| N/C(=N/NC(CC(=O)c1ccc(-n2ccnc2)cc1)c1cccc(Cl)c1)c1ccccn1 (stereo not given) | 18 (≈ 8.01 µg/mL) |
| N/C(=N/NC(CC(=O)c1ccc(-n2ccnc2)cc1)c1ccc(F)cc1)c1ccccn1 (stereo not given) | 18.7 (≈ 8.01 µg/mL) |
| N/C(=N/NC(CC(=O)c1ccc(-n2ccnc2)cc1)c1ccc([N+](=O)[O-])cc1)c1ccccn1 (stereo not given) | 35.1 (≈ 16 µg/mL) |
| NNC(=O)c1ccncc1 [ISONIAZID] | 7.3 (≈ 1 µg/mL) |
